Results: PMC12119673, “Apoptotic cell death induced by copper (II), manganese (II) and silver (I) complexes containing bridging dicarboxylate and 1,10-phenanthroline ligands: one of the multi-modes of anticancer activity?” (Biometals, 2025)
Read-outs that look alike come from different tables or passages of the source.

Experiments:
Assay type in all cases: cell-based, human
MCF-7 cells [1] = test: In vitro cytotoxicity assessment, alamar blue assay, 24-h exposure
Protocol: The MCF-7 (human breast cancer) and MCF-12A (non-tumourigenic human breast) cell lines were obtained from the Technological University Dublin (TUDublin, City Campus) internal cell bank and commercially from the American Type Culture Collection (ATCC), respectively. Both cell lines were cultured using Dulbecco’s Modified Eagle Medium/Nutrient Mixture F-12 Ham (DMEM-F12) (Sigma, Ireland) (Cat# D6421) media. The MCF-7 media was supplemented with 10% Foetal Bovine Serum (Sigma, Ireland) (Cat# F7524) and 1% L-Glutamine (Sigma, Ireland) (Cat# 592020C). The MCF-12A media was supplemented with 5% Equine Serum (Sigma, Ireland) (Cat# H0146) 1.25% L-Glutamine (Sigma, Ireland) (Cat# 592020C), 20 ng/ml Human Epidermal Growth Factor (Thermo Fisher Scientific, Ireland) (Cat# PHG0313), 0.01 mg/ml insulin (Thermo Fisher Scientific, Ireland)(Cat# 12585014) and 500 ng/ml hydrocortisone (Sigma, Ireland) (Cat# H0888). The cells were grown in T75 culture flasks (Sarstedt, Germany) (Cat# 83.3911.002) and were incubated in a 5% CO2 atmosphere at 37 ℃. […] Following the incubation period, the media was removed, and cells were washed with sterile phosphate-buffered saline (PBS). […] Following the exposure period, the drug-containing media was removed, and cells were washed three times with PBS, ensuring complete removal of the test agents. A 5% working solution of Alamar Blue (Thermo Fisher Scientific, Ireland) (Cat# DAL1100) was prepared in dark conditions using unsupplemented cell culture media. 100 μl of the solution was added to each well, and the cells were incubated for 3 h. […] Each exposure was carried out in triplicate plates and was repeated three independent times. The software packages Microsoft^Ⓡ Excel (USA) and GraphPad Prism (Ver. 10.0.3) (GraphPad, USA) were used to analyse the alamar blue data. The treated sample values were first normalised to the negative control values. After normalisation, the mean and standard deviations (SD) were established using Microsoft^Ⓡ Excel. The statistical analysis package GraphPad was then used to determine the IC25 and IC50 concentrations.

MCF-7 cells [2] = test: Detection of reactive oxygen species with H2DCFDA; conditions: MCF-7, 0.78 μM to 50 μM, over a 6-h period, fold-change compared to the negative control
Protocol: The production of reactive oxygen species (ROS) was detected in MCF-7 and MCF12A cells using the cell-permeant dye 2',7'- dichlorodihydrofluorescein diacetate (H2DCFDA) (Thermo Fisher Scientific, Ireland) (Cat# D399). Cells were seeded at a density of 1 × 10^4 in 96 well plates and incubated for 24 h. Post-incubation, the media was removed, and cells were washed with PBS. A 10 μM DCFH-DA working solution was prepared using cell culture media, and the cells were incubated with 100 μl of the solution in the dark for 30 min. […] Fluorescent measurements were recorded at 15 min, 30 min, 1 h, and subsequently every hour up to 6 h using a Varioskan Lux™ multimode microplate reader (Thermo Fisher Scientific, Ireland) at an excitation wavelength of 495 nm and emission of 527 nm. The assay was repeated three independent times, using three replicates per plate.
The cells were treated with a concentration range from 0.78 μM to 50 μM, and the response was measured over a 6-h period. This facilitated the evaluation of whether there was a time and/or concentration dependent response from the cells. Hydrogen peroxide (H2O2) was used as a positive control. ROS production is presented as fold-change compared to the negative control.

[3] = test system: caspase-3/7 in MCF-7 cells; test: Caspase 3/7 expression, FLICA (FAM-DEVD-FMK) flow cytometry; conditions: MCF-7, IC25 concentration, 24 h
Protocol: (§1) The expression of caspase-3/7 in MCF-7 and MCF-12A cells was determined using the VybrantTM FAM™ Caspase-3 and Caspase-7 Assay Kit (Cat# V35118) (Thermo Fisher Scientific, Ireland). Cells were seeded at a density of 1 × 10^5 in T25 flasks and incubated in routine conditions for 24 h. […] Post-exposure, the cells were harvested for staining.
(§2) Flow cytometry data analysis was performed with the CytExpert package (Ver. 2.4) (Beckman Coulter, USA) and Microsoft^Ⓡ Excel (USA). The mean MFI and percentage cells were calculated using these packages, followed by one-way ANOVA analysis with post hoc Bonferroni correction using GraphPad Prism (Ver. 9.4) (GraphPad, USA).
(§3) The expression of caspase-3/7 was analysed in MCF-7 and MCF-12A cells using fluorescent labelled inhibitors of caspase (FLICA): FAM-DEVD-FMK. […] Following the apoptosis induction study, it was of interest to determine whether the complexes were stimulating the executioner caspases triggering the irreversible proteolytic degradation of cells, culminating in cell death. […] These three complexes were selected based on their structural similarities, while incorporating alternative metal centres.

[4] = test system: caspase-3/7 in MCF-12A cells; test: as above; conditions: IC25 concentration, 24 h
Protocol: as §1, §2, §3

MCF-12A cells = test: Apoptosis induction, Annexin V / propidium iodide flow cytometry; conditions: IC25 concentration, 24 h
Protocol: (§4) MCF-7 and MCF-12A cells were seeded at a density of 1 × 10^5 in T25 flasks (Sarstedt, Germany) and incubated for 24 h at 37 °C with 5% CO2 allowing for attachment. Post -incubation, the media was removed, cells were washed with sterile PBS and then treated using IC25 concentrations established from the in vitro cytotoxicity screen. […] After the exposure period, the cells were enzymatically detached using trypsin, collected and centrifuged at 1200RPM for 10 min. The cells were then washed with PBS, re-centrifuged and resuspended in 1 ml of annexin binding buffer. Prior to staining, the concentration of each sample was adjusted to 1 × 10^6 cells/ml. The cells were stained with 1 μl of propidium iodide (PI) (Sigma, Ireland) (Cat #P4864) and 2 μl of Annexin V (Thermo Fisher Scientific, Ireland) (Cat #A13199). The cells were incubated at room temperature for 15 min prior to analysis. The staining process was completed in the dark to eliminate interference with photo-sensitive reagents. Immediately prior to analysis by flow cytometry, 400 μl of annexin binding buffer was added to each sample. Samples were analysed using a (CytoFLEX) (Beckman Coulter, USA). The AV/PI assay was completed three independent times.
as §2
(§5) The induction of apoptosis was analysed in MCF-7 and MCF-12A cells using the Annexin V and Propidium Iodide assay with flow cytometry. […] The assay allows for the differentiation of viable, apoptotic and necrotic cells based on the selective staining of Annexin V and PI. Annexin V binds to phosphatidylserines externalised to the outer leaflet of the plasma membrane during apoptosis; and PI is a membrane impermeable dye that binds to DNA of necrotic cells with compromised plasma membranes.

MCF-7 cells [5] = test: as above; conditions: MCF-7, IC25 concentration, 24 h
Protocol: as §4, §2, §5

[6] = MCF-7, 24-hour exposure, per one metal centre, mean ± S.D. (N=3)
[7] = MCF-7, 24-hour exposure, per one metal centre, mean ± S.D. (N=3), read-out: IC50 calculated per one metal centre
[8] = MCF-7, 24-h exposure, 25% reduction in metabolic activity, mean ± SD (N = 3)

O=C([O-])CCCCCCC(=O)[O-].[Cu+2].[Cu+2].[O-][Cl+3]([O-])([O-])[O-].[O-][Cl+3]([O-])([O-])[O-].c1cnc2c(c1)ccc1cccnc12.c1cnc2c(c1)ccc1cccnc12.c1cnc2c(c1)ccc1cccnc12.c1cnc2c(c1)ccc1cccnc12 [Complex 1, [Cu2(oda)(phen)4](ClO4)2]
Cytotoxic activity IC25 ± SD (MCF-7 cells [1]): 1.77 ± 0.14 µM | IC50 (MCF-7 cells [1]): 4.76 ± 0.3 µM | IC25 calculated per one metal centre (MCF-7 cells [1]; [6]): 3.54 ± 0.28  µM | IC50 (MCF-7 cells [1]; [7]): 9.52 ± 0.6 µM | ROS production (MCF-7 cells [2]): moderate production of ROS

O=C([O-])CCCCCCC(=O)[O-].[Cu+2].c1cnc2c(c1)ccc1cccnc12.c1cnc2c(c1)ccc1cccnc12 [Complex 2, [Cu(oda)(phen)2]]
Cytotoxic activity IC25 ± SD (MCF-7 cells [1]; [8]): 2.04 ± 0.24 µM | IC25 calculated per one metal centre (MCF-7 cells [1]; [6]): 2.04 ± 0.24  µM | IC50 (MCF-7 cells [1]; [7]): 6.72 ± 0.6 µM | Expression of caspase-3/7 (% cells) [3]: highest expression of caspase-3/7 | ROS production (MCF-7 cells [2]): moderate production of ROS

O=C([O-])CCCCCCC(=O)[O-].[Ag+].[Ag+].c1cnc2c(c1)ccc1cccnc12.c1cnc2c(c1)ccc1cccnc12.c1cnc2c(c1)ccc1cccnc12 [Complex 4, [Ag2(oda)(phen)3]]
Cytotoxic activity IC25 ± SD (MCF-7 cells [1]; [8]): 5.52 ± 0.89 µM | IC25 calculated per one metal centre (MCF-7 cells [1]; [6]): 11.04 ± 1.78  µM | Expression of caspase-3/7 (% cells) [4]: highest expression | ROS production (MCF-7 cells [2]): lowest production | Apoptotic population (% cells) (MCF-12A cells): significant decrease in apoptotic cells | Necrotic population (% cells) (MCF-12A cells): virtually no necrotic population

O=C([O-])CCCCCCCCCC(=O)[O-].[Ag+].[Ag+].c1cnc2c(c1)ccc1cccnc12.c1cnc2c(c1)ccc1cccnc12.c1cnc2c(c1)ccc1cccnc12 [Complex 5, [Ag2(udda)(phen)3]]
Cytotoxic activity IC25 ± SD (MCF-7 cells [1]; [8]): 5.84 ± 0.12 µM | IC25 calculated per one metal centre (MCF-7 cells [1]; [6]): 11.68 ± 0.24  µM | ROS production (MCF-7 cells [2]): lowest production | Apoptotic population (% cells) (MCF-12A cells): same level of apoptosis | Necrotic population (% cells) (MCF-12A cells): no necrotic population was observed | Necrotic population (% cells) (MCF-7 cells [5]): significant population

c1cnc2c(c1)ccc1cccnc12 [Phen, 1,10-Phenanthroline]
IC50 (MCF-7 cells [1]; Homo sapiens, MCF7, MCF-7, 24-h exposure, 50% reduction in metabolic activity, mean ± SD (N = 3), read-out: Cytotoxic activity IC50 ± SD): 33.2 ± 9.36 µM | Cytotoxic activity IC25 ± SD (MCF-7 cells [1]; [8]): 9.02 ± 4.26 µM | IC25 calculated per one metal centre (MCF-7 cells [1]; [6]): 9.02 ± 4.26  µM

{[Mn2(oda)3(phen)4]^2−[Mn2(oda)(phen)4 (H2O)2]^2+} [Complex 7]
Cytotoxic activity IC25 ± SD (MCF-7 cells [1]; [8]): 0.70 ± 0.11 µM | IC50 (MCF-7 cells [1]; MCF-7, 24-h exposure, 50% reduction in metabolic activity, mean ± SD (N = 3), read-out: Cytotoxic activity IC50 ± SD): 2.79 ± 0.13 µM | IC25 calculated per one metal centre (MCF-7 cells [1]; [6]): 2.80 ± 0.44  µM | IC50 (MCF-7 cells [1]; [7]): 11.2 ± 0.52 µM | Expression of caspase-3/7 (% cells) [3]: lowest expression levels of the three complexes | ROS production (MCF-7 cells [2]): potent inducer of ROS, eliciting the highest production in MCF-7 cells | Apoptotic population (% cells) (MCF-12A cells): significantly diminished apoptotic population | Necrotic population (% cells) (MCF-12A cells): no necrosis observed | Necrotic population (% cells) (MCF-7 cells [5]): necrotic population also observed
